Test results as given in US6528653B2, “Thienopyrrolidinones” (Hoffmann-La Roche, Inc., priority 2000, dated 2003).

Tested on: LPS-induced TNF-α production in THP-1 cells
Assay: Inhibition of LPS-induced TNF-α production in THP-1 cells (TNF-α ELISA)
Assay type: cell-based
Settings: Homo sapiens, 30 min preincubation with compound, LPS 4 hours, TNF-α in supernatant by ELISA, percentage of DMSO control
Experimental: The assay uses a modification of the methods described in Blifield et al., Transplantation, 51:498-503 (1991).
(a) Induction of TNF Biosynthesis
THP-1 cells were suspended in serum free culture medium LGM-3 (Clonetics, Bio Whittaker, UK, Cat. No. CC-3211), at a concentration of 5×10^5 cells/ml and then plated in 96 well-plates (0.2 ml aliquots in each well). Test compounds were dissolved in DMSO and then diluted with the culture medium such that the final DMSO concentration was 1%. Twenty five μl aliquots of test solution or only medium with DMSO (control) were added to each well giving a final DMSO concentration of 0.1%. The cells were incubated for 30 min. at 37° C. LPS (Sigma Chemical Company, UK) was added to the wells at a final concentration of 2 μg/nml, and cells were incubated for an additional 4 hours. At the end of the incubation period, culture supernatants were collected and the amount of TNF-α present was determined using a commercial TNF-α ELISA assay as described below.
(b) ELISA Assay. Quantikine™ human TNF-α (R&D Systems Europe Ltd., UK) (Cat. No. DTA50 in 2000)
The assay was carried out according to the manufacturer's instructions with the following modifications. Assay plates were centrifuged at 200 g and a 200 μl sample added to each well. TNF-α standard was made up and diluted in LGM-3 culture medium. Samples in the ELISA plate were then incubated overnight at 4° C. instead of 2 hours at 37° C. TNF-α production for each condition was calculated and expressed as a percentage of DMSO control to enable IC50 calculation.

IC50	SMILES
1590 nM	COc1cc[nH]c1/C=C1\C(=O)Nc2sccc21 [Example 13, (Z)-4,6-Dihydro-4-[(3-methoxy-1H-pyrrol-2-yl)methylene]-thieno[2,3-b]pyrrol-5-one]
5080 nM	O=C1Nc2sccc2/C1=C/c1ccc[nH]1 [Example 1, (Z)-4,6-Dihydro-4-[(1H-pyrrol-2yl)methylene]thieno[2,3-b]pyrrol-5-one]
1100 nM	O=C1Nc2sccc2/C1=C/c1c[nH]nc1-c1ccccc1 [Example 9, (Z)-4,6-Dihydro-4-[(3-phenyl-1H-pyrazol-4-yl)methylene]-thieno[2,3-b]pyrrol-5-one]
3690 nM	N#Cc1cc2c(s1)NC(=O)/C2=C\c1ccc[nH]1 [Example 20, (Z)-5,6-Dihydro-5-oxo-4-[(1H-pyrrol-2-yl)methylene]-4H-thieno[2,3-b]pyrrole-2-carbonitrile]
